Assay results as given in ChEMBL document CHEMBL1201862, “PubChem BioAssay data set” (2004).
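Tested at 5 concentrations; 48 h exposure; 96-well plates; endpoints linearly interpolated, else capped at highest concentration. At the GI50, growth is halved.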 The source made the active and inactive calls. No stated cut-off is given here; in the data, active = GI50 up to about 1.1 µM and inactive = higher.

Experiments:
Assay in all cases: NCI tumour cell line growth inhibition, 48 h
[1] = test system: NCI-H226
[2] = test system: MOLT-4
[3] = test system: HCT-116
[4] = test system: SK-MEL-5
[5] = test system: SN12C
[6] = test system: SF-268
[7] = test system: DLD-1
[8] = test system: IGROV-1
[9] = test system: ACHN
[10] = test system: SF-295
[11] = test system: SK-OV-3
[12] = test system: HOP-62
[13] = test system: OVCAR-3
[14] = test system: COLO 205
[15] = test system: A549
[16] = test system: SF-539
[17] = test system: M14
[18] = test system: A498
[19] = test system: PC-3
[20] = test system: MCF7

## CNC(=O)N(CCCC(NC(C)=O)C(=O)NCc1ccccc1)Cc1ccccc1 (stereo unspecified)
[1]
  GI50: > 100000 nM (inactive)
[2]
  GI50: > 100000 nM (inactive)
[3]
  GI50: > 100000 nM (inactive)
[4]
  GI50: > 100000 nM (inactive)
[5]
  GI50: > 100000 nM (inactive)
[6]
  GI50: > 100000 nM (inactive)
[7]
  GI50: > 100000 nM (inactive)
[8]
  GI50: > 100000 nM (inactive)
[9]
  GI50: > 100000 nM (inactive)
[10]
  GI50: > 100000 nM (inactive)
[11]
  GI50: > 100000 nM (inactive)
[12]
  GI50: > 100000 nM (inactive)
[13]
  GI50: > 100000 nM (inactive)
[14]
  GI50: > 100000 nM (inactive)
[15]
  GI50: > 100000 nM (inactive)
[16]
  GI50: > 100000 nM (inactive)
[17]
  GI50: > 100000 nM (inactive)
[18]
  GI50: > 100000 nM (inactive)

## O=C(NC(=O)c1ccccc1[N+](=O)[O-])Nc1ccc(Oc2ncc(Cl)cn2)c([N+](=O)[O-])c1
[1]
  GI50: 263 nM (active)
[2]
  GI50: 171 nM (active)
[3]
  GI50: 175 nM (active)
[4]
  GI50: 77.3 nM (active)
[5]
  GI50: 700 nM (active)
[6]
  GI50: 327 nM (active)
[19]
  GI50: 196 nM (active)
[7]
  GI50: 217 nM (active)
[8]
  GI50: 368 nM (active)
[9]
  GI50: 641 nM (active)
[10]
  GI50: 157 nM (active)
[11]
  GI50: 146 nM (active)
[12]
  GI50: 303 nM (active)
[13]
  GI50: 64.4 nM (active)
[14]
  GI50: 340 nM (active)
[15]
  GI50: 385 nM (active)
[16]
  GI50: 233 nM (active)
[17]
  GI50: 175 nM (active)
[18]
  GI50: 301 nM (active)
[20]
  GI50: 120 nM (active)

## CCC1(OC(C)=O)C(=O)OCc2c1cc1n(c2=O)Cc2cc3ccccc3nc2-1 (stereo unspecified)
[1]
  GI50: 869 nM (active)
[2]
  GI50: 264 nM (active)
[3]
  GI50: 2030 nM (inactive)
[4]
  GI50: 1230 nM (inactive)
[5]
  GI50: 638 nM (active)
[6]
  GI50: 528 nM (active)
[7]
  GI50: > 66400 nM (inactive)
[8]
  GI50: 7520 nM (inactive)
[9]
  GI50: 455 nM (active)
[10]
  GI50: 778 nM (active)
[11]
  GI50: 2280 nM (inactive)
[12]
  GI50: 316 nM (active)
[13]
  GI50: 10700 nM (inactive)
[14]
  GI50: 35100 nM (inactive)
[15]
  GI50: 1160 nM (inactive)
[16]
  GI50: 568 nM (active)
[17]
  GI50: 948 nM (active)
[18]
  GI50: 2550 nM (inactive)
